Experimental data as given in patent US4082761A, “Triazolo[4,3-a][1,4]benzodiazepinium quaternary salts” (The Upjohn Company, priority 1973, dated 1978).
Structures can show the parent of a compound that is named as a salt.

Key:
Assay type in all cases: in vivo
mice [1] = assay: Pedestal test (mice stay on the pedestal for more than 1 minute); conditions: Mus musculus, ip, 1 min, intraperitoneal injection in mice, read-out: ED50 P (pedestal test)
Description: (§1) Tranquilizing effects of the compounds of this invention are shown by the following tests in mice:
Pedestal test: The untreated mouse leaves a standard pedestal in less than a minute to climb back to the floor of the standard mouse box. Tranquilized mice will stay on the pedestal for more than 1 minute.

mice [2] = assay: Chimney test (mice fail to back up and out of a vertical glass cylinder within 30 seconds); conditions: Mus musculus, ip; intraperitoneal injection in mice; 50% of the mice failed to back out within 30 seconds; read-out: ED50 Ch (chimney test)
Description: as §1
Chimney test: [Med. Exp. 4, 145 (1961)]: The test determines the ability of mice to back up and out of a vertical glass cylinder within 30 seconds. At the effective dosage, 50% of the mice failed doing it.

mice [3] = assay: Dish test (mice remaining in the dish for more than 3 minutes); conditions: Mus musculus, ip, 0.05 h; intraperitoneal injection in mice; 50% of the mice remain in the dish for more than 3 minutes; read-out: ED50 D (dish test)
Description: as §1
Dish test: Mice in Petri dishes (10 cm. diameter, 5 cm. high, partially embedded in wood shavings), climb out in a very short time, when not treated. Mice remaining in the dish for more than 3 minutes indicates tranquilization. ED50 equals the dose of test compound at which 50% of the mice remain in the dish.

mice [4] = assay: Nicotine antagonism test (nicotine salicylate 2 mg./kg.); conditions: Mus musculus, ip, intraperitoneal injection in mice, nicotine salicylate 2 mg./kg. thirty minutes later
Description: as §1
Nicotine antagonism test: Mice in a group of 6 are injected with the test compound. Thirty minutes later the mice including control (untreated) mice are injected with nicotine salicylate (2 mg./kg.). The control mice show overstimulation, i.e., (1) running convulsions followed by (2) tonic extensor fits; followed by (3) death.
Ni = nicotine antagonism (2) and (3) tests.

[5] = (2) tonic extensor fits, read-out: ED50 Ni(2) (nicotine antagonism (2) test)
[6] = (3) death, read-out: ED50 Ni(3) (nicotine antagonism (3) test)

Row | Compound | ED50 (mice [1]) [mg/kg] | ED50 (mice [2]) [mg/kg] | ED50 (mice [3]) [mg/kg] | ED50 (mice [4]; [5]) [mg/kg] | ED50 (mice [4]; [6]) [mg/kg]
1 | Cc1n[n+](C)c2n1-c1ccc(Cl)cc1C(c1ccccc1)=NC2 [8-Chloro-1,3-dimethyl-6-phenyl-4H-s-triazolo[4,3-a][1,4]benzodiazepinium chloride sesquihydrate] | 79 | 36 | 79 | 22 | 22
2 | C[n+]1nc([O-])n2c1CN=C(c1ccccc1Cl)c1cc(Cl)ccc1-2 [8-Chloro-6-(o-chlorophenyl)-1-hydroxy-3-methyl-4H-s-triazolo[4,3-a][1,4]benzodiazepinium hydroxide inner salt] | 3.2 | 1.6 | 1.2 | 0.3 | 0.44
